Measurements published in US20250176599A1, “FLAVOR COMPOSITION AND FOOD AND BEVERAGE” (TAKASAGO INTERNATIONAL CORPORATION, priority 2021, published 2025).

Tests used:
[1] = Overall conclusion of the sensory evaluation across soymilks I and II
Description: (§1) To commercially available soymilk (“Delicious Unadjusted Soymilk” manufactured by Kikkoman Corporation), each degradation component was added to prepare degradation component-added soymilks at the concentrations listed in Table 23. To these degradation component-added soymilks, 1,4-dioxacycloheptadecan-5,17-dione was added at the concentrations listed in Table 23 to confirm the intensity of the off-flavor (masking effect) and the intensity of the masking components (impact on the flavor of the soymilk itself) for each sample.
Eight experienced panelists were selected to conduct a sensory evaluation similar to that of Example 1.
The same method as in Example 20 was used to confirm the intensity of the off-flavor (masking effect) derived from unsaturated fatty acids by α-methyl ionone and the intensity of the masking components (impact on the flavor of the soymilk itself).
The same method as in Example 20 was used to confirm the intensity of the off-flavor (masking effect) derived from unsaturated fatty acids by menthyl 3-hydroxybutyrate and the intensity of the masking components (impact on the flavor of the soymilk itself).

[2] = Sensory evaluation of aqueous solution V containing 1-octen-3-ol 10 ppb: off-flavor intensity and masking component intensity; conditions: 1-octen-3-ol 10 ppb, average score 0-4
In short: (§2)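 Scores run 0–4 for two attributes: off-flavor intensity, judged against the unmasked spiked solution (4) and degradant-free water (0), and nootkatone's own perceptibility, judged absolutely. A panel of eight experienced tasters evaluated aqueous solutions of the degradation component containing added nootkatone.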

[3] = Sensory evaluation of degradation component-added soymilk I ((E)-2-nonenal 5 ppb); conditions: average panel score
Description: as §1
(§3) Eight experienced panelists were selected to conduct a sensory evaluation similar to that of Example 1. […]

[4] = Sensory evaluation of aqueous solution II containing (E)-2-octenal 10 ppb: off-flavor intensity and masking component intensity; conditions: (E)-2-octenal 10 ppb, average score 0-4
In short: as §2

[5] = Sensory evaluation of degradation component-added soymilk II (1-octen-3-ol 500 ppb); conditions: average panel score
Description: as §1, §3

[6] = Sensory evaluation of aqueous solution VI containing 1,5-octadien-3-ol 10 ppb: off-flavor intensity and masking component intensity; conditions: aqueous solution VI, 1,5-octadien-3-ol 10 ppb, average score 0-4
In short: as §2

[7] = Sensory evaluation of aqueous solution IV containing 1,5-octadien-3-one 100 ppt: off-flavor intensity and masking component intensity; conditions: aqueous solution IV, 1,5-octadien-3-one 100 ppt, average score 0-4
In short: as §2

[8] = Sensory evaluation of aqueous solution I containing (E)-2-nonenal 1 ppb: off-flavor intensity and masking component intensity; conditions: (E)-2-nonenal 1 ppb, average score 0-4
In short: as §2

[9] = Overall conclusion of the sensory evaluation across aqueous solutions I to VI
In short: as §2

[10] = Sensory evaluation of aqueous solution III containing 1-octen-3-one 1 ppb: off-flavor intensity and masking component intensity; conditions: 1-octen-3-one 1 ppb, average score 0-4
In short: as §2

For `CCC(=O)/C=C/C1C(C)=CCCC1(C)C` (stereo not drawn) [α-Methyl Ionone, α-methyl ionone], which “concentration that masks the off-flavor and does not affect the flavor of the soymilk itself, lower limit” value [1] is on record?
The value was at least 100 ppt.

And the “concentration that masks the off-flavor and does not affect the flavor of the soymilk itself, upper limit” value [1]?
The value was at most 100 ppb.

What about the “Off-Flavor Intensity” value ([2]; 0.01 ppt added) of the same molecule?
Its value is 3.6 points.

What about the “Off-Flavor Intensity” value ([2]; 0.1 ppt added) of the same molecule?
Its value is 3.3 points.

What about the “Off-Flavor Intensity” value ([2]; 1 ppb added) of the same molecule?
The value was 1.4 points.

What about the “Off-Flavor Intensity” value ([2]; 1 ppm added) of the same molecule?
Its value is 0.1 points.

What about the “Off-Flavor Intensity” value ([2]; 1 ppt added) of the same molecule?
The value was 2.8 points.

And the “Off-Flavor Intensity” value ([2]; 10 ppb added)?
Its value is 0.8 points.

What about the “Off-Flavor Intensity” value ([2]; 10 ppt added) of the same molecule?
Its value is 2.4 points.

What about the “Off-Flavor Intensity” value ([2]; 100 ppb added) of the same molecule?
Its value is 0.5 points.

And the “Off-Flavor Intensity” value ([2]; 100 ppt added)?
The value was 1.8 points.

What about the “Masking Component Intensity” value ([3]; 1 ppb added) of the same molecule?
Its value is 0.8.

What about the “Off-Flavor Intensity” value ([3]; 1 ppb added) of the same molecule?
The value was 2.6.

And the “Masking Component Intensity” value ([3]; 1 ppm added)?
The value was 3.9.

What about the “Off-Flavor Intensity” value ([3]; 1 ppm added) of the same molecule?
Its value is 0.5.

What about the “Masking Component Intensity” value ([3]; 10 ppb added) of the same molecule?
Its value is 1.9.

What about the “Off-Flavor Intensity” value ([3]; 10 ppb added) of the same molecule?
Its value is 1.9.

What about the “Masking Component Intensity” value ([3]; 100 ppb added) of the same molecule?
The value was 3.1.

What about the “Off-Flavor Intensity” value ([3]; 100 ppb added) of the same molecule?
The value was 1.0.

What about the “Masking Component Intensity” value ([3]; 100 ppt added) of the same molecule?
Its value is 0.1.

What about the “Off-Flavor Intensity” value ([3]; 100 ppt added) of the same molecule?
Its value is 3.0.

What about the “Off-Flavor Intensity” value ([4]; 0.01 ppt added) of the same molecule?
Its value is 3.1 points.

And the “Off-Flavor Intensity” value ([4]; 0.1 ppt added)?
Its value is 2.8 points.

What about the “Off-Flavor Intensity” value ([4]; 1 ppb added) of the same molecule?
The value was 1.0 points.

And the “Off-Flavor Intensity” value ([4]; 1 ppm added)?
Its value is 0.3 points.

And the “Off-Flavor Intensity” value ([4]; 1 ppt added)?
The value was 2.1 points.

What about the “Off-Flavor Intensity” value ([4]; 10 ppb added) of the same molecule?
The value was 0.8 points.

What about the “Off-Flavor Intensity” value ([4]; 10 ppt added) of the same molecule?
Its value is 1.5 points.

And the “Off-Flavor Intensity” value ([4]; 100 ppb added)?
Its value is 0.4 points.

What about the “Off-Flavor Intensity” value ([4]; 100 ppt added) of the same molecule?
Its value is 1.1 points.

What about the “Masking Component Intensity” value ([5]; 1 ppb added) of the same molecule?
Its value is 0.8.

And the “Off-Flavor Intensity” value ([5]; 1 ppb added)?
Its value is 2.1.

What about the “Masking Component Intensity” value ([5]; 1 ppm added) of the same molecule?
Its value is 3.9.

What about the “Off-Flavor Intensity” value ([5]; 1 ppm added) of the same molecule?
The value was 0.4.

What about the “Masking Component Intensity” value ([5]; 10 ppb added) of the same molecule?
Its value is 1.4.

What about the “Off-Flavor Intensity” value ([5]; 10 ppb added) of the same molecule?
The value was 1.3.

And the “Masking Component Intensity” value ([5]; 100 ppb added)?
The value was 2.8.

And the “Off-Flavor Intensity” value ([5]; 100 ppb added)?
Its value is 0.9.

What about the “Masking Component Intensity” value ([5]; 100 ppt added) of the same molecule?
Its value is 0.4.

What about the “Off-Flavor Intensity” value ([5]; 100 ppt added) of the same molecule?
Its value is 2.5.

And the “Off-Flavor Intensity” value ([6]; 0.01 ppt added)?
Its value is 3.5 points.

What about the “Off-Flavor Intensity” value ([6]; 0.1 ppt added) of the same molecule?
The value was 3.3 points.

What about the “Off-Flavor Intensity” value ([6]; 1 ppb added) of the same molecule?
Its value is 1.4 points.

What about the “Off-Flavor Intensity” value ([6]; 1 ppm added) of the same molecule?
The value was 0.5 points.

And the “Off-Flavor Intensity” value ([6]; 1 ppt added)?
The value was 2.8 points.

What about the “Off-Flavor Intensity” value ([6]; 10 ppb added) of the same molecule?
Its value is 1.4 points.

What about the “Off-Flavor Intensity” value ([6]; 10 ppt added) of the same molecule?
The value was 2.4 points.

And the “Off-Flavor Intensity” value ([6]; 100 ppb added)?
The value was 0.6 points.

And the “Off-Flavor Intensity” value ([6]; 100 ppt added)?
Its value is 2.0 points.

What about the “Off-Flavor Intensity” value ([7]; 0.01 ppt added) of the same molecule?
The value was 3.4 points.

And the “Off-Flavor Intensity” value ([7]; 0.1 ppt added)?
Its value is 3.3 points.

And the “Off-Flavor Intensity” value ([7]; 1 ppb added)?
Its value is 1.5 points.

And the “Off-Flavor Intensity” value ([7]; 1 ppm added)?
Its value is 0.4 points.

What about the “Off-Flavor Intensity” value ([7]; 1 ppt added) of the same molecule?
The value was 2.9 points.

What about the “Off-Flavor Intensity” value ([7]; 10 ppb added) of the same molecule?
The value was 1.4 points.

What about the “Off-Flavor Intensity” value ([7]; 10 ppt added) of the same molecule?
The value was 2.6 points.

What about the “Off-Flavor Intensity” value ([7]; 100 ppb added) of the same molecule?
Its value is 0.8 points.

What about the “Off-Flavor Intensity” value ([7]; 100 ppt added) of the same molecule?
The value was 1.9 points.

What about the “Off-Flavor Intensity” value ([8]; 0.01 ppt added) of the same molecule?
The value was 3.9 points.

And the “Off-Flavor Intensity” value ([8]; 0.1 ppt added)?
The value was 3.3 points.

And the “Off-Flavor Intensity” value ([8]; 1 ppb added)?
Its value is 1.5 points.

And the “Off-Flavor Intensity” value ([8]; 1 ppm added)?
Its value is 0.3 points.

What about the “Off-Flavor Intensity” value ([8]; 1 ppt added) of the same molecule?
Its value is 2.9 points.

What about the “Off-Flavor Intensity” value ([8]; 10 ppb added) of the same molecule?
Its value is 1.0 points.

And the “Off-Flavor Intensity” value ([8]; 10 ppt added)?
Its value is 2.4 points.

What about the “Off-Flavor Intensity” value ([8]; 100 ppb added) of the same molecule?
The value was 0.3 points.

What about the “Off-Flavor Intensity” value ([8]; 100 ppt added) of the same molecule?
Its value is 1.8 points.

And the “concentration that masks the off-flavor and does not affect the flavor of the food and/or beverage itself, lower limit” value [9]?
Its value is at least 0.1 ppt.

What about the “concentration that masks the off-flavor and does not affect the flavor of the food and/or beverage itself, upper limit” value [9] of the same molecule?
Its value is at most 100 ppb.

What about the “Off-Flavor Intensity” value ([10]; 0.01 ppt added) of the same molecule?
Its value is 3.4 points.

And the “Off-Flavor Intensity” value ([10]; 0.1 ppt added)?
The value was 3.1 points.

What about the “Off-Flavor Intensity” value ([10]; 1 ppb added) of the same molecule?
The value was 1.4 points.

And the “Off-Flavor Intensity” value ([10]; 1 ppm added)?
The value was 0.3 points.

What about the “Off-Flavor Intensity” value ([10]; 1 ppt added) of the same molecule?
Its value is 2.6 points.

And the “Off-Flavor Intensity” value ([10]; 10 ppb added)?
The value was 1.3 points.

And the “Off-Flavor Intensity” value ([10]; 10 ppt added)?
Its value is 2.3 points.

What about the “Off-Flavor Intensity” value ([10]; 100 ppb added) of the same molecule?
The value was 0.3 points.

What about the “Off-Flavor Intensity” value ([10]; 100 ppt added) of the same molecule?
Its value is 1.9 points.
